Source: patent US8735410B2, “Quinazoline derivatives as tyrosine kinase inhibitors” (AstraZeneca AB, priority 2005, dated 2014)

System: KB cells (human tumour cell line ATCC CCL-17)
Test: EGFR driven KB cell proliferation assay (Test b)
Assay type: cell-based
Settings: geometric mean of n tests, EGF driven proliferation of KB cells
Description: b) EGFR Driven KB Cell Proliferation Assay
This assay measures the ability of a test compound to inhibit the proliferation of KB cells (human tumour cell line ATCC CCL-17).
KB cells were cultured in Dulbecco's modified Eagle's medium (DMEM) containing 10% foetal calf serum, 2 mM glutamine and 1% non-essential amino acids at 37° C. in a 7.5% CO2 air incubator. Cells were harvested from the stock flasks using Trypsin/ethylaminediaminetetraacetic acid (EDTA). Cell density was measured using a haemocytometer and viability was calculated using trypan blue solution before being seeded at a density of 1.25×10^3 cells per well of a 96 well plate in DMEM containing 2.5% charcoal stripped serum, 1 mM glutamine and 1% non-essential amino acids at 37° C. in 7.5% CO2 and allowed to settle for 4 hours.
Following adhesion to the plate, the cells are treated with or without EGF (final concentration of 1 ng/ml) and with or without compound at a range of concentrations in dimethylsulfoxide (DMSO) (0.1% final) before incubation for 4 days. Following the incubation period, cell numbers were determined by addition of 50 μl of 3-(4,5-Dimethylthiazol-2-yl)-2,5-diphenyltetrazolium bromide (MTT) (stock 5 mg/ml) for 2 hours. MTT solution was then tipped off, the plate gently tapped dry and the cells dissolved upon the addition of 100 μl of DMSO.
Absorbance of the solubilised cells was read at 540 nm using a Molecular Devices ThermoMax microplate reader. Inhibition of proliferation was expressed as an IC50 value. This was determined by calculation of the concentration of compound that was required to give 50% inhibition of EGF driven proliferation. The range of proliferation was calculated from the positive (vehicle plus EGF) and negative (vehicle minus EGF) control values. The IC50 value obtained from basal cell growth gives a measure of selectivity.

| IC50 [nM] | SMILES |
| --- | --- |
| 61 | CNC(=O)[C@@H]1C[C@@H](Oc2cc3c(Nc4cccc(Cl)c4F)ncnc3cc2OC)CCN1C [Example 2, (2S,4S)-4-({4-[(3-chloro-2-fluorophenyl)amino]-7-methoxyquinazolin-6-yl}oxy)-N,1-dimethylpiperidine-2-carboxamide] |
| 56 | COc1cc2ncnc(Nc3cccc(Cl)c3F)c2cc1O[C@H]1CCN(C)[C@H](C(N)=O)C1 [Example 1, (2S,4S)-4-({4-[(3-chloro-2-fluorophenyl)amino]-7-methoxyquinazolin-6-yl}oxy)-1-methylpiperidine-2-carboxamide] |
| 23 | CNC(=O)[C@H]1C[C@H](Oc2cc3c(Nc4cccc(Cl)c4F)ncnc3cc2OC)CCN1C [Example 3, (2R,4R)-4-({4-[(3-chloro-2-fluorophenyl)amino]-7-methoxyquinazolin-6-yl}oxy)-N,1-dimethylpiperidine-2-carboxamide] |
